Ends that are not written are not given here.

The values below come from doi:10.1101/2024.07.10.602890, “H105A peptide eye drops promote photoreceptor survival in murine and human models of retinal degeneration” (bioRxiv, 2024).

Assay [1] has as its system rd10 and rd10/Serpinf1−/− mice. The assay can be described thus: Retinal histology (H&E), OS length and ONL thickness spider plots after peptide eye drops. In kind it is in vivo, mouse. To be noted: for outer nuclear layer (ONL) thickness vs vehicle-treated or untreated eyes / photoreceptor outer segment (OS) length vs vehicle-treated or untreated eyes / ONL thickness (spider plots): daily eye drops 1 mg/ml, P21; for outer nuclear layer (ONL) thickness vs vehicle-treated or untreated eyes / photoreceptor outer segment (OS) length vs vehicle-treated or untreated eyes: rd10 and rd10/Serpinf1−/− mice; for ONL thickness (spider plots): rd10 mice only. The method, then: Fig. 4: Effect of eyedrops of 17-mer and H105A peptides on photoreceptor morphology of rd10 and rd10/Serpinf1−/− mice (A and B) Histological Evaluation. Representative microphotographs of retina sections from rd10 (A) and rd10/Serpinf1−/− (B) mice treated with 17-mer, H105A, or R99A peptides at 1 mg/ml, or with vehicle (HBSS), compared to wild type C57Bl/6J mice. Sections were stained with hematoxylin and eosin. Spider Plot illustrate the thickness of the outer nuclear layer (ONL) in rd10 (C) and rd10/Serpinf1−/− (D) mice. Five retinas per group were analyzed and each data point represents the average ± SEM per location relative to the optic nerve (ON), analyzed using One-way ANOVA. Statistics for comparisons between H105A and vehicle is indicated by #p < 0.05, #p < 0.05, ##p < 0.01, ###p < 0.001). Statistics for comparisons between H105A and 17-mer is indicated by *p < 0.05. Scale bar = 50 μm.
Both eyes were oriented before enucleation to allow sectioning along the dorsal/ventral axis. Enucleated eyes from rd10 and rd10 × Serpinf1^−/− mice were incised in the cornea and fixed in 2.5% glutaraldehyde for 20 min and then in 10% neutral buffered formalin at 4°C for at least 48 h, followed by paraffin embedding, sectioning, and staining with either H&E or immunofluorescence procedures, as previously described ([28]). For fluorescence microscopy, antibodies, and 0.1 μg/ml DAPI were used to immunostain and nuclei counterstain the sections, respectively. Antibodies used in the study are in Table S3. Images were acquired using a ZEIS 700 confocal microscope. Fluorescence intensity was quantified using ImageJ as previously described ([14], [26]).
(§1) To generate spider plots, the ONL thickness was measured from images acquired with light microscopy of the retina sections stained with H&E or images of retina sections stained with DAPI with a dorsal-ventral orientation. The ONL thickness in the entire retina sections was measured at 5 different positions from both sides of the optic nerve (ON) using ImageJ, as described before ([28]). Alternatively, for DAPI stained images, a customed macro implemented in ImageJ was used to select only the ONL.
Figure S2. Effects of extending the timeline or administering eye drops of 17-mer[H105A] peptide every other day in rd10 mic e.
Eye drops of H105A peptide solution were administered to r d1 0 mice either daily (Fig. S2A) or every other day (Fi g. S 2D). A total of 5 µl of a solution containing H105A peptide at 1 mg/ml in HBSS were applied as eye drops. The vehicle HBSS was added as eye drops in the contralateral eyes. […]
ONL thickness in r d10 mice compared to vehicle was also observed (Fi g. S 2E), with an improvement in a- […]
efficacy of peptide H105A eye drops either daily or every other day in an extended timeline to stabilize photoreceptor morphology and light response function loss in r d10 mice, however, these were less efficacious than daily H105A peptide eye drops.
(A) Scheme showing a timeline of peptide administration via daily eye drops of H105A peptide to r d10 mice between P15 and P2 4. […]
(B) Representative microphotographs of retinal cross sections of r d1 0 treated as in Fig. S2A and stained with hematoxylin and eosin are shown. […]
(D) Scheme showing a timeline of peptide administration via eye drops of H105A peptide to rd10 mice starting at P15 every other day until P23. Assays were at P25.
(E) Representative microphotographs of retinal cross sections of r d1 0 treated as in Fig. S2D and stained […]
average ± SD per location relative to the ON per genotype by unpaired t-test. *p < 0.05, […]
(F) ERG of r d1 0 mice at P25 and treated as in Fig. S2D were performed in response to a STR. […]

Assay [2] relates to Rho^P23H/+ mice. The experiment in a line: H105A eye drops in Rho P23H/+ mice: BAX/BCL2 immunofluorescence, ONL and OS thickness. The class given is in vivo, mouse. The method, then: Fig. 6: Effects of eye drops containing H105A peptide in the photoreceptors of RhoP23H/+ mice (A) Scheme of experimental design. Daily peptide eye drops (5 μl of 1mg/ml peptide) were applied to mice starting at P14 until P19 when immunofluorescence of retinal cross sections was performed. The contralateral control eyes were treated with vehicle HBSS. (B) Immunostaining was performed with antibodies against BAX or BCL2 (green), and DAPI (blue). Histograms show quantification of immunofluorescence intensity for BAX and BCL2 markers. […] Each individual data point represents the average of one retina, with statistical significance determined by unpaired t-test (****p < 0.00001). Scale bar = 10 μm. […] (D) Quantification of ONL thickness represented in the spider graph confirmed a significant preservation in the ventral retina. […] Presented as average ± SEM, with statistics performed using One-way ANOVA * p<0.05
Eyes from Rho^P23H/+ mice eyes were enucleated and fixed in Davidson’s fix (Formaldehyde 8% (Merck, cat. F8775); Ethanol 32% (Carlo Erba, cat. 414608); Acetic Acid 10% (Merck, cat. 695092) over-night. After embedding in paraffin, 14 μm sections were collected. For TUNEL, sections were treated with 0.1 M Citrate Buffer pH 6 (Tri-sodium Citrate 10 mM (Carlo Erba, cat. 368007); Citric Acid 0.2 mM (Merck, cat: 251275) in microwave for 5 minutes, then labeling was performed for one hour at 37°C using a In Situ Cell Death Detection Kit (Merck, cat. 12156792910). Rod photoreceptors were labeled with anti-RHO 1D4 antibody followed by Alexa Fluor 568 anti-mouse secondary antibody (see Table S3). Cone photoreceptors were labeled with peanut agglutinin (PNA, Vector Laboratories, cat. FL-1071). GFP localization in control transduced retinas was identified with specific anti-GFP antibodies and Alexa Fluor 488 anti-mouse secondary antibody (see Table S3). For nuclear staining, 0.1 μg/mL DAPI was used. Slides were mounted with Mowiol 4–88 (Merck) and images acquired with a Zeiss Axio Imager A2 fluorescence microscope. To count TUNEL positive cells the RETINA Analysis Tool kit for ImageJ was used ([52]).
as §1

Where [3] appears, read: daily eye drops 5 μl of 1 mg/ml P14 to P19, vs contralateral HBSS.

QRTESIIHRALYYDLIS [17-mer]: in assay [1], the “outer nuclear layer (ONL) thickness vs vehicle-treated or untreated eyes” value is “thicker outer nuclear layer”, the “photoreceptor outer segment (OS) length vs vehicle-treated or untreated eyes” value is “longer OS” and the “ONL thickness (spider plots)” value is “restored ONL thickness”.

In the case of QRTESIIARALYYDLIS [H105A], in assay [1], the “outer nuclear layer (ONL) thickness vs vehicle-treated or untreated eyes” value was “thicker outer nuclear layer”, the “photoreceptor outer segment (OS) length vs vehicle-treated or untreated eyes” value is reported as “longer OS” and the “ONL thickness (spider plots)” value is “to almost wild-type levels”. Further, the ONL thickness result in assay [1] (rd10 mice, daily eye drops 5 μl of 1 mg/ml P15 until P24, assayed at P25) was “rescue in the ONL thickness”. Besides, the “ONL thickness compared to vehicle” value in assay [1] (rd10 mice, eye drops every other day P15 until P23, assayed at P25) is given as “rescue”. Besides, in assay [2] (setting [3]), the “BAX level (immunofluorescence)” value is on record as “attenuated the levels of BAX” and the “BCL2 level (immunofluorescence)” value is on record as “increased BCL2”. Further, the “outer segments (OS) of rod photoreceptors labeled by rhodopsin” value in assay [2] (daily eye drops P14 to P19, P19, n = 9) is listed as “significantly preserved”. Further, the ONL thickness entry in assay [2] (daily eye drops P14 to P19, assessed at P19) is recorded as “significant preservation in the ventral part of the retina”.
